This series is described as follows: Metabolic stability assay (substrate depletion) in human liver cytosol fractions. Conditions: for half-life at 1 μM: both, human.
Where [1] appears, read: liver cytosol fractions, pH 7.4, t1/2 [min] (Right), external validation, sheet Human, right compound.
Where [2] appears, read: external validation, sheet Human, left compound.
Setting [3] is: liver cytosol fractions, pH 7.4, t1/2 [min] (Left), external validation, sheet Human, left compound.
Where [4] appears, read: liver cytosol fractions, pH 7.4, t1/2 [min] (left), in-house library pair, human transforms, left compound.

Each structure is given as a SMILES string. Some results are limits rather than exact numbers.

The half-life is the time in which the quantity being followed falls by half.

Description: Our assay (384-well format) consisted of two parts; a robotic system for incubation and sample clean up and an integrated LC/MS method to calculate the percent remaining of parent compound. Briefly, each reaction mixture (110 μL) consisted of a test compound (1 μM) and either human or mouse cytosol fractions (2 mg/mL) in phosphate buffer (100 mM) at pH 7.4. Samples were incubated in 384-well plates at 37 °C for 0, 5, 10, 15, 30 and 60 min. Sample analysis and t1/2 calculations were performed using a previously described method [15]. […] A set of control compounds for low and high cytosolic stability were routinely run in each plate.

The molecule `CC1(c2ccccc2)N(Cc2ccccc2)C(=O)OC12CCN(Cc1ccc(C(=O)O)cc1)CC2` (stereo not drawn) returned a half-life at 1 μM under setting [1] above 2 h.
On the same count and under the same terms, the same measure for `CCN1CCN(C(=O)c2nc3sccn3c2-c2cccc(OC)c2)CC1`: above 2 h.
In the case of `CCOc1cc(=O)n2c(c1C(=O)Nc1ccc(C#N)cc1)CCCC2`, under setting [2], the “t1/2 [min] (Left)” value is 101.4 min.
Turning to `CCOc1cc(=O)n2c(c1C(=O)Nc1ccc(S(N)(=O)=O)cc1)CCCC2`, under setting [1], the half-life at 1 μM is above 2 h.
Take `CC(C)(C)c1coc([C@@H]2COCCN2Cc2cccc(C#N)c2)n1`: the half-life at 1 μM was found to be 0.943 h under setting [3] and 0.943 h under setting [4].
`CN1c2cc(C(=O)Nc3ccc(C#N)cc3)ccc2C(=O)N2CCCCC21` (stereo not drawn): the half-life at 1 μM under setting [3] was above 2 h.
On to `CNC(=O)[C@@H]1CN(C(=O)c2cccc(C#N)c2)C[C@H]1COC`, for which the “t1/2 [min] (Left)” value under setting [2] was determined as 86.6 min.
Under setting [1], `CNC(=O)[C@@H]1CN(C(=O)c2cccc(OC)c2)C[C@H]1COC` displayed a half-life at 1 μM above 2 h.
With `COc1ccc(-c2n[nH]c3ncc(-c4cccc(F)c4)nc23)c(C)c1`, the “t1/2 [min] (Left)” value under setting [2] is recorded as 75.8 min.
Under setting [1], `COc1ccc(CN2CC[C@@](C)(O)[C@H](N3CCCC3)C2)cc1` had a half-life at 1 μM above 2 h.
The same measure, in the same setting: with `COc1ccc(C(=O)N2C[C@@H](CO)[C@H](N(C)C)C2)cc1` the figure was above 2 h; with `COc1cccc(-c2c(C(=O)Nc3ccc(C)cc3)nc3sccn23)c1`, 1.55 h.
Still for that read-out and setting: the same measure for `COc1cccc(-c2cn3c(n2)N(C(=O)c2ccco2)CCC3)c1`: 0.993 h; for `COc1cccc(-c2cn3c(n2)N(C(=O)c2cccs2)CCC3)c1`: above 2 h; for `COc1cccc(-c2cn3c(n2)N(C(=O)c2ccoc2)CCC3)c1`: 1.86 h.
On the same count and under the same terms, with `COc1cccc(CN2CC[C@H](c3nc4ccccc4[nH]3)C2)c1` the figure was above 2 h; with `COc1cccc(CN2CC[C@H](c3nnc(-c4ccco4)o3)C2)c1`, 1.97 h.
On to `Cc1cc2cc(-c3c(C)noc3C)nc(Nc3cccc(F)c3)c2o1`, for which, under setting [2], the “t1/2 [min] (Left)” value is 8.2 min.
As for `Cc1ccc(-c2noc([C@@H]3Cc4[nH]cnc4CN3Cc3cccc(C#N)c3)n2)cc1`, the “t1/2 [min] (Left)” value under setting [2] is listed as 63.4 min.
Turning to `Cc1ccc(NC(=O)c2nc3sccn3c2-c2cccc(C#N)c2)cc1`, the “t1/2 [min] (Left)” value under setting [2] was found to be 17.4 min.
Take `Cc1nn2c(c1-c1ccccc1Oc1ccccc1)N(Cc1ccc(C(=O)O)cc1)CCC2`: the half-life at 1 μM under setting [1] is above 2 h.
The same measure, in the same setting: with `Cc1noc(-c2cn(C3CCN(C(=O)c4ccccc4)C3)nn2)n1` (stereo not drawn) the figure was above 2 h.
As for `Cn1ccc(NC(=O)c2ccc(-c3ncc4cnc(-c5cccc(F)c5)cn34)cc2)n1`, the “t1/2 [min] (Left)” value under setting [2] is listed as 33.2 min.
On the same count and under the same terms, with `Fc1cccc(-c2c[nH]c([C@@H]3COCCN3Cc3c[nH]cn3)n2)c1` the figure was 59.3 min; with `N#Cc1ccc(CN2CCC3(COc4ccccc4C(=O)N3)C2)cc1` (stereo not drawn), 38.4 min.
Same read-out and setting: the same measure for `N#Cc1ccc(CN2C[C@@H](CO)[C@H](c3ccncc3)C2)cc1`: 107.1 min; for `N#Cc1cccc(-c2c(C(=O)N3CCCCC3)nc3sccn23)c1`: 103.4 min; for `N#Cc1cccc(-c2cn3c(n2)N(C(=O)c2ccco2)CCC3)c1`: 36.7 min.
With `N#Cc1cccc(CN2CCOC[C@H]2c2nc(-c3ccc(F)cc3)c[nH]2)c1`, the “t1/2 [min] (Left)” value under setting [2] stood at 94.7 min.
As for `N#Cc1cccc(CN2CC(COc3ccccc3)C3(C2)CN(c2ccccc2)C3)c1` (stereo not drawn), the half-life at 1 μM by setting is: under setting [3], 0.693 h; under setting [4], 0.693 h.
Regarding `N#Cc1cccc(CN2C[C@@H](CO)[C@H](c3ccccn3)C2)c1`, the “t1/2 [min] (Left)” value under setting [2] turned out to be 57.4 min.
As to `O=C(N1CCN(S(=O)(=O)c2ccccc2)CC1)N1CC2CC(C1)[C@H]1CCCC(=O)N1C2` (stereo partly drawn), the half-life at 1 μM under setting [1] was above 2 h.
Consider `O=C(NCCc1c[nH]cn1)c1ccc(-c2ncc3cnc(-c4cccc(F)c4)cn23)cc1`, for which the “t1/2 [min] (Left)” value under setting [2] came out at 14.9 min.
`O=C(O)c1ccc(CN2CCOC[C@H]2c2nc(-c3ccc(F)cc3)c[nH]2)cc1` came in with a half-life at 1 μM under setting [1] above 2 h.
Molecule `CC(=O)N1CCC(Cc2ccc(C(=O)NC3CC3)cc2)CC1` [CC(=O)N1CCC(Cc2ccc(C(=O)NC3CC3)cc2)CC1] had a half-life at 1 μM under setting [3] of 1.33 h and a half-life at 1 μM under setting [4] of 1.33 h.
The molecule `CC(C)CN1C(=O)c2cccn2CC1C(=O)N1CCN(C)CC1` (stereo not drawn) [CC(C)CN1C(=O)c2cccn2CC1C(=O)N1CCN(C)CC1] yielded a half-life at 1 μM under setting [1] of 1.79 h.
On the same count and under the same terms, the same measure for `CCOCCOC1CCN(C(=O)Nc2ccccc2)CC1` [CCOCCOC1CCN(C(=O)Nc2ccccc2)CC1]: above 2 h.
Same read-out and setting: the same measure for `CN1CCC(OC2CCN(C(=O)c3ccccc3)CC2)CC1` [CN1CCC(OC2CCN(C(=O)c3ccccc3)CC2)CC1]: above 2 h.
Molecule `CN1CCN(C(=O)Cc2cccn2-c2ccc(F)cc2)CC1` [CN1CCN(C(=O)Cc2cccn2-c2ccc(F)cc2)CC1] returned a half-life at 1 μM (cytosol, pH 7.4, t1/2 [min] (Right), external validation, sheet Human, right compound) above 2 h.
As to `CN(CC1CCOC1)C(=O)Nc1ccccc1` (stereo not drawn) [CN(CC1CCOC1)C(=O)Nc1ccccc1], under setting [1], the half-life at 1 μM was above 2 h.
With `CN(Cc1cccc(F)c1)C1CCOc2ccccc21` (stereo not drawn) [CN(Cc1cccc(F)c1)C1CCOc2ccccc21], under setting [2], the “t1/2 [min] (Left)” value was found to be 8.6 min.
The molecule `CN(Cc1ccccc1)C1CCOc2ccccc21` (stereo not drawn) [CN(Cc1ccccc1)C1CCOc2ccccc21] gave a half-life at 1 μM under setting [1] of 0.127 h.
As to `COC1CCC12CCN(C(=O)c1ccc(C#N)cc1)CC2` (stereo not drawn) [COC1CCC12CCN(C(=O)c1ccc(C#N)cc1)CC2], the “t1/2 [min] (Left)” value under setting [2] came out at 79.2 min.
`COCCNC(=O)c1nc2sccn2c1-c1cccc(OC)c1` [COCCNC(=O)c1nc2sccn2c1-c1cccc(OC)c1] showed a half-life at 1 μM under setting [1] above 2 h.
On the same count and under the same terms, with `COCCOC1CCN(C(=O)Nc2ccccc2)CC1` [COCCOC1CCN(C(=O)Nc2ccccc2)CC1] the figure was above 2 h; with `COc1ccc(C(=O)N2CCC3(CCC3OC)CC2)cc1` (stereo not drawn) [COc1ccc(C(=O)N2CCC3(CCC3OC)CC2)cc1], 1.17 h.
On the same count and under the same terms, with `COc1ccc(CN2CC(N3CCc4ccccc43)C2)cc1` [COc1ccc(CN2CC(N3CCc4ccccc43)C2)cc1] the figure was 1.37 h; with `COc1ccc(CN2CC(Oc3ccc(F)c(C)c3)C2)cc1` [COc1ccc(CN2CC(Oc3ccc(F)c(C)c3)C2)cc1], 0.36 h; with `COc1ccc(CN2CC(Oc3ccc(F)c(F)c3)C2)cc1` [COc1ccc(CN2CC(Oc3ccc(F)c(F)c3)C2)cc1], 0.5 h.
In turn, `COc1ccc(CN2CC(Oc3ccc(F)cc3C)C2)cc1` [COc1ccc(CN2CC(Oc3ccc(F)cc3C)C2)cc1] showed a half-life at 1 μM under setting [1] of 0.35 h.
Consider `COc1ccc(CN2CC(Oc3ccc(OC)cc3)C2)cc1` [COc1ccc(CN2CC(Oc3ccc(OC)cc3)C2)cc1], for which, under setting [1], the half-life at 1 μM is above 2 h.
The same measure, in the same setting: the same measure for `COc1ccc(CN2CCC3(C2)NC(=O)c2ccccc2O3)cc1` (stereo not drawn) [COc1ccc(CN2CCC3(C2)NC(=O)c2ccccc2O3)cc1]: above 2 h.
The same measure, in the same setting: the same measure for `COc1ccc(CN2CCC3(CC2)CC(=O)c2ccccc2O3)cc1` [COc1ccc(CN2CCC3(CC2)CC(=O)c2ccccc2O3)cc1]: above 2 h.
`COc1ccc(CN2CCC3(COc4ccccc4C(=O)N3)C2)cc1` (stereo not drawn) [COc1ccc(CN2CCC3(COc4ccccc4C(=O)N3)C2)cc1] had a half-life at 1 μM under setting [1] of 0.578 h.
On the same count and under the same terms, with `COc1ccc(CN2CCC(N3CCNC3=O)CC2)cc1` [COc1ccc(CN2CCC(N3CCNC3=O)CC2)cc1] the figure was above 2 h.
Still for that read-out and setting: the same measure for `COc1ccc(CN2CCC(N3CCOC3=O)CC2)cc1` [COc1ccc(CN2CCC(N3CCOC3=O)CC2)cc1]: above 2 h.
Same read-out and setting: with `COc1ccc(CN2CCC(N3Cc4cccn4C3=O)CC2)cc1` [COc1ccc(CN2CCC(N3Cc4cccn4C3=O)CC2)cc1] the figure was above 2 h; with `COc1ccc(CN2CC[C@H](c3nnc(C)o3)C2)cc1` [COc1ccc(CN2CC[C@H](c3nnc(C)o3)C2)cc1], above 2 h; with `COc1cccc(-c2c(C(=O)N3CCCCC3)nc3sccn23)c1` [COc1cccc(-c2c(C(=O)N3CCCCC3)nc3sccn23)c1], 1.9 h.
With `COc1cccc(-c2c(C(=O)N3CCOCC3)nc3sccn23)c1` [COc1cccc(-c2c(C(=O)N3CCOCC3)nc3sccn23)c1], the half-life at 1 μM under setting [1] is above 2 h.
The same measure, in the same setting: with `COc1cccc(-c2c(C(=O)NC3CC3)nc3sccn23)c1` [COc1cccc(-c2c(C(=O)NC3CC3)nc3sccn23)c1] the figure was above 2 h; with `COc1cccc(CN2CCC3(CC2)OCCN(C)C3=O)c1` [COc1cccc(CN2CCC3(CC2)OCCN(C)C3=O)c1], above 2 h.
Same read-out and setting: the same measure for `COc1cccc(CN2CCOC[C@H](O)C2)c1` [COc1cccc(CN2CCOC[C@H](O)C2)c1]: 0.47 h; for `COc1ccccc1CN1CCC2(CC1)CC(O)CCO2` (stereo not drawn) [COc1ccccc1CN1CCC2(CC1)CC(O)CCO2]: above 2 h.
On to `COc1cncc(Nc2ncc(-c3cccc(F)c3)c3c2OCC3)c1` [COc1cncc(Nc2ncc(-c3cccc(F)c3)c3c2OCC3)c1], for which, under setting [2], the “t1/2 [min] (Left)” value was found to be 80.3 min.
Under setting [1], `Cc1cc2cc(-c3c(C)noc3C)nc(Nc3ccccc3)c2o1` [Cc1cc2cc(-c3c(C)noc3C)nc(Nc3ccccc3)c2o1] came in with a half-life at 1 μM of 0.593 h.
Take `Cc1cc(F)ccc1OC1CN(Cc2ccc(C#N)cc2)C1` [Cc1cc(F)ccc1OC1CN(Cc2ccc(C#N)cc2)C1]: the “t1/2 [min] (Left)” value under setting [2] is on record as 35.4 min.
Same read-out and setting: the same measure for `Cc1cc(OC2CN(Cc3ccc(C#N)cc3)C2)ccc1F` [Cc1cc(OC2CN(Cc3ccc(C#N)cc3)C2)ccc1F]: 43.8 min.
With `Cc1ccccc1-c1n[nH]c2ncc(-c3cccc(F)c3)nc12` [Cc1ccccc1-c1n[nH]c2ncc(-c3cccc(F)c3)nc12], under setting [2], the “t1/2 [min] (Left)” value was found to be 49 min.
Same read-out and setting: the same measure for `Cc1noc(C)c1-c1cc(-c2cccc(F)c2)cn2cncc12` [Cc1noc(C)c1-c1cc(-c2cccc(F)c2)cn2cncc12]: 90 min; for `Cn1cnc2ccc(Nc3cccc(F)c3)nc2c1=O` [Cn1cnc2ccc(Nc3cccc(F)c3)nc2c1=O]: 115.2 min; for `Fc1cccc(-c2cnc(Nc3cncnc3)c3c2CCO3)c1` [Fc1cccc(-c2cnc(Nc3cncnc3)c3c2CCO3)c1]: 9.6 min.

(Values after PMC7140498, “Predicting liver cytosol stability of small molecules” (Journal of Cheminformatics, 2020).)
